Measured values taken from the supplement of paper PMC13380429.

Legend:
Details in all cases: 72 h
Calu-3 [1] = test: drug sensitivity score (DSS) for viability; higher = more toxic; extreme values may be limits of the assay
U2OS [2] = test: as above
HepG2 [3] = test: as above
Vero E6 [4] = test: as above
Caco-2 [5] = test: as above
Calu-3 [6] = test: cell viability relative to DMSO; higher = less toxic
U2OS [7] = test: as above
HepG2 [8] = test: as above
Vero E6 [9] = test: as above
Caco-2 [10] = test: as above
Calu-3 [11] = test: relative viability EC50 (midpoint between 100% and the lowest measured viability); higher = less toxic
U2OS [12] = test: as above
HepG2 [13] = test: as above
Vero E6 [14] = test: as above
Caco-2 [15] = test: as above

| SMILES | drug sensitivity score (Calu-3 [1]) | drug sensitivity score (U2OS [2]) | drug sensitivity score (HepG2 [3]) | drug sensitivity score (Vero E6 [4]) | drug sensitivity score (Caco-2 [5]) | cell viability (Calu-3 [6]; 1 nM) [%] | cell viability (Calu-3 [6]; 10 nM) [%] | cell viability (Calu-3 [6]; 100 nM) [%] | cell viability (Calu-3 [6]; 1000 nM) [%] | cell viability (Calu-3 [6]; 10000 nM) [%] | cell viability (U2OS [7]; 1 nM) [%] | cell viability (U2OS [7]; 10 nM) [%] | cell viability (U2OS [7]; 100 nM) [%] | cell viability (U2OS [7]; 1000 nM) [%] | cell viability (U2OS [7]; 10000 nM) [%] | cell viability (HepG2 [8]; 1 nM) [%] | cell viability (HepG2 [8]; 10 nM) [%] | cell viability (HepG2 [8]; 100 nM) [%] | cell viability (HepG2 [8]; 1000 nM) [%] | cell viability (HepG2 [8]; 10000 nM) [%] | cell viability (Vero E6 [9]; 1 nM) [%] | cell viability (Vero E6 [9]; 10 nM) [%] | cell viability (Vero E6 [9]; 100 nM) [%] | cell viability (Vero E6 [9]; 1000 nM) [%] | cell viability (Vero E6 [9]; 10000 nM) [%] | cell viability (Caco-2 [10]; 1 nM) [%] | cell viability (Caco-2 [10]; 10 nM) [%] | cell viability (Caco-2 [10]; 100 nM) [%] | cell viability (Caco-2 [10]; 1000 nM) [%] | cell viability (Caco-2 [10]; 10000 nM) [%] | relative viability EC50 (Calu-3 [11]) [µM] | relative viability EC50 (U2OS [12]) [µM] | relative viability EC50 (HepG2 [13]) [µM] | relative viability EC50 (Vero E6 [14]) [µM] | relative viability EC50 (Caco-2 [15]) [µM] |
| --- | --- | --- | --- | --- | --- | --- | --- | --- | --- | --- | --- | --- | --- | --- | --- | --- | --- | --- | --- | --- | --- | --- | --- | --- | --- | --- | --- | --- | --- | --- | --- | --- | --- | --- | --- |
| COC(=O)C1=CO[C@@H](O)[C@@H]2C(CO)=CC[C@H]12 [genipin] | 2.4 | 0 | 0 | 0 | 0.1 | 88 | 92.8 | 83.6 | 85.1 | 87 | 93.8 | 94.3 | 99.7 | 92.8 | 100 | 87.6 | 105 | 103 | 106 | 113 | 90.1 | 101 | 95.7 | 99.5 | 106 | 91.6 | 96.1 | 102 | 96.8 | 88.5 | > 10 | > 10 | > 10 | > 10 | > 10 |
| CCCCCOc1c(OC)ccc2cc(C(=O)NCc3ccc4c(c3)OCO4)c(=O)[nH]c12 [JTE-907] | 0 | 0 | 0 | 0 | 0.8 | 102 | 93.9 | 97.3 | 105 | 90.8 | 100 | 99.7 | 103 | 99.5 | 97.4 | 95 | 97.4 | 100 | 115 | 103 | 90.8 | 99.8 | 94.5 | 94.3 | 110 | 90.9 | 91.1 | 99.9 | 101 | 75.7 | > 10 | > 10 | > 10 | > 10 | > 10 |
| CCOC(=O)c1ncn2c1CN(C)C(=O)c1cc(F)ccc1-2 [flumazenil] | 0 | 0 | 0 | 0 | 0 | 89.2 | 87.6 | 87.1 | 90.8 | 87 | 99.2 | 103 | 97.3 | 103 | 97.8 | 97.8 | 95 | 97.8 | 90.7 | 95.6 | 102 | 97.2 | 100 | 95.4 | 98.8 | 95.2 | 99.6 | 99.1 | 102 | 105 | > 10 | > 10 | > 10 | > 10 | > 10 |
| O=C(N[C@H]1CN2CCC1CC2)c1ccc(Cl)cc1 | 0 | 0 | 0 | 0 | 0 | 99.6 | 88.7 | 99.6 | 99.8 | 95.6 | 102 | 97.4 | 99.9 | 95.7 | 101 | 97.2 | 92.2 | 93.7 | 102 | 94.3 | 96.7 | 94.7 | 95.4 | 92.7 | 92.5 | 98.5 | 97.8 | 103 | 98.3 | 92.6 | > 10 | > 10 | > 10 | > 10 | > 10 |
| O=c1[nH]c2ccccc2n1CCCN1CCC(n2c(=O)[nH]c3cc(Cl)ccc32)CC1 [domperidone] | 0 | 0 | 0 | 0 | 0 | 102 | 94.6 | 105 | 106 | 101 | 103 | 90.7 | 97.6 | 95.6 | 94.2 | 94.6 | 96.4 | 92.3 | 104 | 95.7 | 90 | 93.8 | 95.8 | 96.6 | 89 | 100 | 96.1 | 96.7 | 92.1 | 94.3 | > 10 | > 10 | > 10 | > 10 | > 10 |
| CCCN(CCC)C(=O)C(CCC(=O)OCCCN1CCN(CCOC(=O)Cc2c(C)n(C(=O)c3ccc(Cl)cc3)c3ccc(OC)cc23)CC1)NC(=O)c1ccccc1 (stereo not given) [proglumetacin] | 0 | 0 | 1.1 | 0 | 0 | 95.5 | 96.2 | 99 | 110 | 96.6 | 95.9 | 106 | 101 | 104 | 94 | 91 | 114 | 112 | 85.3 | 93.9 | 115 | 97.2 | 98 | 91.5 | 102 | 104 | 96.5 | 99.1 | 112 | 108 | > 10 | > 10 | > 10 | > 10 | > 10 |
| CC(=O)c1ccc2c(c1)N(CCCN1CCN(CCO)CC1)c1ccccc1S2 [acetophenazine] | 0 | 0 | 0 | 0.5 | 0 | 107 | 110 | 95.3 | 108 | 88.7 | 93.6 | 100 | 96.1 | 98.2 | 91.3 | 107 | 98.9 | 91.1 | 90.9 | 90.4 | 104 | 98.2 | 106 | 99 | 82.6 | 88.8 | 103 | 95.4 | 97.2 | 97.7 | > 10 | > 10 | > 10 | > 10 | > 10 |
